Laboratory results taken from patent US9211310B2, “Use of a Chinese medicine composition in preparing medicaments for treating secondary prevention of myocardial infarction” (TASLY PHARMACEUTICAL GROUP CO., LTD, priority 2010, dated 2015).

System: patients after acute myocardial infarction
Assay: Life quality, Seattle Angina Questionnaire (SAQ), same clinical trial
Type: in vivo, human
Conditions: PP
Excerpt: 3508 patients who were in accordance with the diagnostic standards of AMI for 28 days to 2 years and differentiated as Qi deficiency and blood stagnation syndrome by TCM were studied. 0.5 g Chinese medicine composition prepared by the method of EXAMPLE 1 (Coded as QSYQ) was administrated half an hour after meal, 3 times per day.
There were 19 questions in the Seattle angina questionnaire (SAQ), including 5 parts: physical limitation (PL), anginal stability (AS), anginal frequency (AF), treatment satisfaction (TS) and disease perception (DP). After being given necessary explanation by doctors, the questions were answered independently by patients.
They included the overall survival time, angina pectoris score, TCM symptom score and life quality score, where angina pectoris score, TCM symptom score and life quality score were evaluated at randomization, in 1st, 3rd, 6th, 9th, 12th month after treatment and 18th month after follow-up.
All evaluation results of SAQ were described during the period of observation, and Wilcoxon rank sum test was used for inter-group comparison.
The evaluation results in the SAQ were depicted in different observations, and inter-group comparison was tested by Wilcoxon Rank-sum test.

CC(=O)Oc1ccccc1C(=O)O [Control group, aspirine]
SAQ Question 1-4: Not limited, percent of patients (Follow-up): (53.63%)
SAQ Question 1-4: Other reasons, number of patients (Follow-up): 10
SAQ Question 1-4: Other reasons, percent of patients (Follow-up): (0.71%)
SAQ Question 1-4: Severely limited, number of patients (Follow-up): 5
SAQ Question 1-4: Severely limited, percent of patients (Follow-up): (0.36%)
SAQ Question 1-4: Slightly limited, number of patients (Follow-up): 428
SAQ Question 1-4: Slightly limited, percent of patients (Follow-up): (30.44%)
SAQ Question 1-5: Mildly limited, number of patients (Follow-up): 181
SAQ Question 1-5: Mildly limited, percent of patients (Follow-up): (12.87%)
SAQ Question 1-5: Moderately limited, number of patients (Follow-up): 57
SAQ Question 1-5: Moderately limited, percent of patients (Follow-up): (4.05%)
SAQ Question 1-5: Not limited, number of patients (Follow-up): 765
SAQ Question 1-5: Not limited, percent of patients (Follow-up): (54.41%)
SAQ Question 1-5: Other reasons, number of patients (Follow-up): 8
SAQ Question 1-5: Other reasons, percent of patients (Follow-up): (0.57%)
SAQ Question 1-5: Severely limited, number of patients (Follow-up): 9
SAQ Question 1-5: Severely limited, percent of patients (Follow-up): (0.64%)
SAQ Question 1-5: Slightly limited, number of patients (Follow-up): 386
SAQ Question 1-5: Slightly limited, percent of patients (Follow-up): (27.45%)
SAQ Question 1-9: Mildly limited, % of cases (Follow-up): (20.25%)
SAQ Question 1-9: Mildly limited, cases (Follow-up): 276
SAQ Question 1-9: Moderately limited, % of cases (Follow-up): (21.13%)
SAQ Question 1-9: Moderately limited, cases (Follow-up): 288
SAQ Question 1-9: Not limited, % of cases (Follow-up): (6.09%)
SAQ Question 1-9: Not limited, cases (Follow-up): 83
SAQ Question 1-9: Other reasons, % of cases (Follow-up): (4.77%)
SAQ Question 1-9: Other reasons, cases (Follow-up): 65
SAQ Question 1-9: Severely-limited, % of cases (Follow-up): (27.29%)
SAQ Question 1-9: Severely-limited, cases (Follow-up): 372
SAQ Question 1-9: Slightly limited, % of cases (Follow-up): (20.47%)
SAQ Question 1-9: Slightly limited, cases (Follow-up): 279
8th question: Dissatisfied, patients (%) (1 month after treatment): (0.13%)
8th question: Highly satisfied, patients (%) (1 month after treatment): (17.41%)
8th question: Mostly dissatisfied, patients (%) (1 month after treatment): (4.23%)
8th question: Mostly satisfied, patients (%) (1 month after treatment): (48.99%)
8th question: Partly satisfied, patients (%) (1 month after treatment): (29.23%)
9th question: Few, patients (%) (1 month after treatment): (25.86%)
9th question: Mild, patients (%) (1 month after treatment): (35.93%)
9th question: Moderate, patients (%) (1 month after treatment): (18.94%)
9th question: Severe, patients (%) (1 month after treatment): (2.01%)
9th question: Uneffective, patients (%) (1 month after treatment): (17.26%)
10th question: Dissatisfied, patients (%) (1 month after treatment): (22.24%)
10th question: Highly satisfied, patients (%) (1 month after treatment): (4.23%)
10th question: Mostly dissatisfied, patients (%) (1 month after treatment): (23.12%)
10th question: Mostly satisfied, patients (%) (1 month after treatment): (19.83%)
10th question: Partly satisfied, patients (%) (1 month after treatment): (30.58%)
11th question: Continuously worried, patients (%) (1 month after treatment): (6.04%)
11th question: No worried, patients (%) (1 month after treatment): (4.84%)
11th question: Occasionally worried, patients (%) (1 month after treatment): (41.24%)
11th question: Often worried, patients (%) (1 month after treatment): (21.76%)
11th question: Seldom worried, patients (%) (1 month after treatment): (26.12%)
SAQ 4th question, 1-2 times per week: % of patients (1 month after treatment): (17.41%)
SAQ 4th question, 1-2 times per week: number of patients (1 month after treatment): 259
SAQ 4th question, 1-3 times per day: % of patients (1 month after treatment): (6.52%)
SAQ 4th question, 1-3 times per day: number of patients (1 month after treatment): 97
SAQ 4th question, <1 time per week: % of patients (1 month after treatment): (9.07%)
SAQ 4th question, <1 time per week: number of patients (1 month after treatment): 135
SAQ 4th question, Not used: % of patients (1 month after treatment): (53.23%)
SAQ 4th question, Not used: number of patients (1 month after treatment): 792
SAQ 4th question, ≧3 times per week: % of patients (1 month after treatment): (13.71%)
SAQ 4th question, ≧3 times per week: number of patients (1 month after treatment): 204
SAQ 4th question, ≧4 times per day: % of patients (1 month after treatment): (0.07%)
SAQ 4th question, ≧4 times per day: number of patients (1 month after treatment): 1
SAQ 5th question, Few: % of patients (1 month after treatment): (21.67%)
SAQ 5th question, Few: number of patients (1 month after treatment): 322
SAQ 5th question, Mild: % of patients (1 month after treatment): (28.94%)
SAQ 5th question, Mild: number of patients (1 month after treatment): 430
SAQ 5th question, Moderate: % of patients (1 month after treatment): (18.24%)
SAQ 5th question, Moderate: number of patients (1 month after treatment): 271
SAQ 5th question, None: % of patients (1 month after treatment): (25.44%)
SAQ 5th question, None: number of patients (1 month after treatment): 378
SAQ 5th question, Not medicated by doctors: % of patients (1 month after treatment): (3.57%)
SAQ 5th question, Not medicated by doctors: number of patients (1 month after treatment): 53
SAQ 5th question, Severe: % of patients (1 month after treatment): (2.15%)
SAQ 5th question, Severe: number of patients (1 month after treatment): 32
SAQ 6th question, Dissatisfied: % of patients (1 month after treatment): (0.20%)
SAQ 6th question, Dissatisfied: number of patients (1 month after treatment): 3
